Measured values published in PMC5635695, “More than Enzymes That Make or Break Cyclic Di-GMP—Local Signaling in the Interactome of GGDEF/EAL Domain Proteins of Escherichia coli” (mBio, 2017).

Molecular target: T1, CdgI GGDEF domain (GGDEF^CdgI) (Escherichia coli, UniProt P76236)
T1 construct: isolated cytoplasmic GGDEF domain (degenerate A-site, intact I-site), N-terminal MASE4 membrane domain removed; N-terminal His6 tag kept; pQE30xa in E. coli Fi8202
Test: UV cross-linking with [alpha-32P]c-di-GMP, SDS-PAGE
Format: binding
Settings: 42 nM radiolabelled c-di-GMP, competition with unlabelled c-di-GMP; labelled compound

T1 sequence (P76236 315-491): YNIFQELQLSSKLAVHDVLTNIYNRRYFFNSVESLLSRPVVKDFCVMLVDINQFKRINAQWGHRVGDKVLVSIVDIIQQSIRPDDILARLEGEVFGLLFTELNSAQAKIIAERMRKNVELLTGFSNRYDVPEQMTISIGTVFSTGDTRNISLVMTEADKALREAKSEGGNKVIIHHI

Nc1nc2c(ncn2[C@@H]2O[C@@H]3COP(=O)(O)O[C@H]4[C@@H](O)[C@H](n5cnc6c(=O)[nH]c(N)nc65)O[C@@H]4COP(=O)(O)O[C@H]3[C@H]2O)c(=O)[nH]1 [c-di-GMP]
UV cross-linking with [alpha-32P]c-di-GMP, SDS-PAGE: We observed that purified CdgI could indeed bind c-di-GMP
